Data: patent US6979686B1, “Substituted pyrazoles as p38 kinase inhibitors” (Pharmacia Corporation, priority 2001, dated 2005)
Read-outs that look alike come from different tables or passages of the source. One block for each compound: values may come before it.

Columns and labels:
[1] = target: T1, human p38 kinase alpha (Homo sapiens, UniProt Q16539); assay: p38 kinase in vitro assay, phosphorylation of biotinylated PHAS-I with 32P-ATP; type: biochemical; settings: for IC50: read-out: P38 alpha kinase IC50
T1 construct: GST (N, cleaved yes); made in house; host or cells: E. coli DH10B
T1 sequence (Q16539 whole entry): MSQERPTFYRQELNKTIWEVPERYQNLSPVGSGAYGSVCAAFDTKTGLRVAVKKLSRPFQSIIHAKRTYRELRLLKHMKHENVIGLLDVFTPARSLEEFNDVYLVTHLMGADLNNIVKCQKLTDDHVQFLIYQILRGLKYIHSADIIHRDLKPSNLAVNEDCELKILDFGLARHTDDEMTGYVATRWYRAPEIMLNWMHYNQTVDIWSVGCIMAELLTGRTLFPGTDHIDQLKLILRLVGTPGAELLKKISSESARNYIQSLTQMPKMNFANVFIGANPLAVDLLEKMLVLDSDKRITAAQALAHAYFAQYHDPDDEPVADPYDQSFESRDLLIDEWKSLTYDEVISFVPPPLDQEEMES

[2] = tested on: TNF-α, U937 human histiocytic lymphoma cell line; assay: LPS stimulation of TNF production by U937 cells; type: cell-based; settings: for U937 Cell % inhib @ conc. / U937 Cell % inhib @ conc. (uM): @ 1.0 uM; for inhibition at 1 µM: U-937, @ 1.0 uM, read-out: U937 Cell % inhib @ conc.
Procedure: Maintenance and Differentiation of the U937 Human Histiocytic Lymphoma Cell Line:
Fifty million cells in 100 ml media were induced to terminal monocytic differentiation by 24 hour incubation with 20 ng/ml phorbol 12-myristate 13-acetate (Sigma). The cells were washed by centrifugation (200×g for 5 min) and resuspended in 100 ml fresh medium. After 24-48 hours, the cells were harvested, centrifuged, and resuspended in culture medium at 2 million cells/ml.
LPS Stimulation of TNF Production by U937 Cells:
Compounds were prepared as 10 mM stock solutions in DMSO and diluted in culture medium to yield a final DMSO concentration of 0.1% in the cell assay. LPS (E coli, 100 ng/ml final concentration) was then added at a volume of 0.02 ml. After 4 hour incubation at 37° C., the amount of TNF-α released in the culture medium was quantitated by ELISA. Inhibitory potency is expressed as IC50 (μM).
In vitro whole cell assay for measuring the ability of the compounds to inhibit TNF production in human U937 cells stimulated with LPS are shown in the column identified as: • “U937 Cell IC50, uM or % inhib @ conc., (uM)”

[3] = in vitro P38-alpha kinase inhibition
[4] = Homo sapiens, U-937, TNF production, human U937 cells stimulated with LPS, read-out: U937 Cell IC50
[5] = TNF production, human U937 cells stimulated with LPS, read-out: U937 Cell IC50
[6] = TNF production, U937 cells stimulated with LPS
[7] = Homo sapiens, TNF production, LPS-stimulated U937 cells

IC50 [1, 3]: 0.67 µM | IC50 [2, 4]: > 1 µM
Compound: C=CCOC(=O)NC(Cc1ccccc1)c1[nH]nc(-c2ccc(F)cc2)c1-c1ccncc1 (stereo not drawn) [Example B-0801]

P38 alpha kinase % inhib @ conc. ([1]; @ 1.0 uM): 23% @ | IC50 [2, 5]: 2.05 µM
Compound: O=C(NCc1[nH]nc(-c2ccc(F)cc2)c1-c1ccncc1)Nc1ccccc1F [Example B-0162]

IC50 [1, 3]: 2.13 µM
Compound: CNC(=O)CCC(NC(=O)c1ccncc1)c1[nH]nc(-c2ccc(F)cc2)c1-c1ccncc1 (stereo not drawn) [Example B-0875]
inhibition at 1 µM ([2]; Homo sapiens, TNF production, U937 cells stimulated with LPS): 8%

P38 alpha kinase % inhib @ conc. (uM) ([1]; @ 1.0 uM): 53.0% @
Compound: COc1ccccc1C(=O)NCCc1[nH]nc(-c2ccc(F)cc2)c1-c1ccncc1 [Example B-0995]
U937 Cell % inhib @ conc. (uM) [2, 6]: 14.0% @

P38 alpha kinase % inhib @ conc. (uM) ([1]; @ 10.0 uM): 63.0% @
Compound: O=C(NCCc1[nH]nc(-c2ccc(F)cc2)c1-c1ccncc1)Nc1ccc(Cc2ccccc2)cc1 [Example B-0943]
U937 Cell % inhib @ conc. (uM) [2, 6]: 24.0% @

IC50 [1, 3]: 3.46 µM | IC50 [2, 4]: > 1 µM
Compound: COc1ccc(CC(=O)NC(Cc2ccccc2)c2[nH]nc(-c3ccc(F)cc3)c2-c2ccncc2)cc1 (stereo not drawn) [Example B-0816]

IC50 [1, 3]: 1.22 µM
Compound: CC(=O)OC(C)C(=O)NC(Cc1ccccc1)c1[nH]nc(-c2ccc(F)cc2)c1-c1ccncc1 (stereo not drawn) [Example B-0809]
U937 Cell % inhib @ conc. (uM) [2, 6]: 7.0% @

IC50 [1, 3]: 2.12 µM | IC50 [2, 4]: > 1 µM
Compound: O=C(NC(Cc1ccccc1)c1[nH]nc(-c2ccc(F)cc2)c1-c1ccncc1)c1ccccc1C(F)(F)F (stereo not drawn) [Example B-0812]

Second part, the compound before the results:

Compound: Cc1c(-c2ccncc2)c(-c2ccc(F)cc2)nn1CC(=O)N(CC1CC1)C(C)Cc1ccc(Cl)cc1 (stereo not drawn) [Example B-2397]
P38 alpha kinase IC50, uM or % inhib @ conc. (uM): % inhib ([1]; @ 10.0 uM): 83.0% @ | U937 Cell IC50, uM or % inhib @ conc. (uM): % inhib ([2]; @ 10.0 uM, TNF production, U937 cells stimulated with LPS): 22.0% @

Compound: C=Cc1ccc(S(=O)(=O)NCc2[nH]nc(-c3ccc(F)cc3)c2-c2ccncc2)cc1 [Example B-0140]
P38 alpha kinase % inhib @ conc. ([1]; @ 10.0 uM): 67% @ | U937 Cell % inhib @ conc. [2, 6]: 9.0% @

Compound: O=C(NCCCc1[nH]nc(-c2ccc(F)cc2)c1-c1ccncc1)NCCc1ccccn1 [Example B-1314]
IC50 ([1]; in vitro P38-alpha kinase): 0.045 µM | inhibition at 1 µM [2, 7]: 24%

Compound: O=C(NCc1[nH]nc(-c2ccc(F)cc2)c1-c1ccncc1)c1ccc(F)cc1 [Example B-0042]
inhibition at 1 µM ([1]; @ 1.0 uM, read-out: P38 alpha kinase % inhib @ conc.): 94% | IC50 [2, 4]: 2.76 µM

Compound: O=S(=O)(c1ccc(-c2ccon2)s1)N1CCC(c2[nH]nc(-c3ccc(F)cc3)c2-c2ccncc2)CC1 [Example B-1440]
IC50 ([1]; in vitro P38-alpha kinase): 0.87 µM | inhibition at 1 µM [2, 7]: 3%

Compound: Cc1ccc(S(=O)(=O)NCCc2[nH]nc(-c3ccc(F)cc3)c2-c2ccncc2)cc1 [Example B-1027]
P38 alpha kinase % inhib @ conc. (uM) ([1]; @ 1.0 uM): 58.0% @ | U937 Cell % inhib @ conc. (uM) [2, 6]: 18.0% @

Compound: CCCCCSc1cccc(NC(=O)Cn2nc(-c3ccc(F)cc3)c(-c3ccncc3)c2C)c1 [Example B-2447]
P38 alpha kinase IC50, uM or % inhib @ conc. (uM): % inhib ([1]; @ 10.0 uM): 94.0% @ | IC50 ([2]; TNF production, U937 cells stimulated with LPS, read-out: U937 Cell IC50, uM or % inhib @ conc. (uM): IC50): > 10 µM

Compound: CCN1CCC(N(CC)C(=O)Cn2nc(-c3ccc(F)cc3)c(-c3ccncc3)c2C)C1 (stereo not drawn) [Example B-2369]
P38 alpha kinase % inhib @ conc. ([1]; @ 10.0 uM): 32.0% @ | IC50 [2, 5]: > 10 µM

Compound: CC(C)=CC(=O)NC(C)c1[nH]nc(-c2ccc(F)cc2)c1-c1ccncc1 (stereo not drawn) [Example B-0547]
IC50 [1, 3]: 1.24 µM | inhibition at 1 µM ([2]; Homo sapiens, TNF production in human U937 cells stimulated with LPS): 21%

Compound: CCOC(=O)C(NC(=O)NCCc1[nH]nc(-c2ccc(F)cc2)c1-c1ccncc1)C(C)C (stereo not drawn) [Example B-0976]
P38 alpha kinase % inhib @ conc. (uM) ([1]; @ 1.0 uM): 79.0% @ | U937 Cell % inhib @ conc. (uM) [2, 6]: 36.0% @

Compound: COc1ccc(OC)c(S(=O)(=O)N2CCC(c3[nH]nc(-c4ccc(F)cc4)c3-c3ccncc3)CC2)c1 [Example B-1444]
IC50 ([1]; in vitro P38-alpha kinase): 0.3 µM | inhibition at 1 µM [2, 7]: 24%

Compound: O=C(NCCc1[nH]nc(-c2ccc(F)cc2)c1-c1ccncc1)Nc1cccc(Cl)c1Cl [Example B-0980]
P38 alpha kinase % inhib @ conc. (uM) ([1]; @ 1.0 uM): 68.0% @ | U937 Cell % inhib @ conc. (uM) [2, 6]: 31.0% @

Compound: N#Cc1cccc(S(=O)(=O)N2CCC(c3[nH]nc(-c4ccc(F)cc4)c3-c3ccncc3)CC2)c1 [Example B-1469]
IC50 ([1]; in vitro P38-alpha kinase): 0.37 µM | inhibition at 1 µM [2, 7]: 14%

Compound: C[C@@H](NC(=O)[C@H]1CCCN1)c1[nH]nc(-c2ccc(F)cc2)c1-c1ccncc1 [Example B-0428]
IC50 [1, 3]: 0.99 µM | U937 Cell % inhib @ conc. (uM) ([2]; TNF production in human U937 cells stimulated with LPS): 27.0% @

Compound: CC(C)=CC(=O)NCCCc1[nH]nc(-c2ccc(F)cc2)c1-c1ccncc1 [Example B-1175]
P38 alpha kinase % inhib @ conc. (uM) ([1]; @ 1.0 uM): 72.0% @ | IC50 [2, 5]: 1.83 µM

Compound: CCOC(=O)NC(=O)NCc1[nH]nc(-c2ccc(F)cc2)c1-c1ccncc1 [Example B-0152]
P38 alpha kinase % inhib @ conc. ([1]; @ 1.0 uM): 51.0% @ | U937 Cell % inhib @ conc. [2, 6]: 24.0% @
